Where “and” joins values, the source holds several entries; their conditions need not be identical. Equal entries are not always repeated. No end group written: not given here.
How the values were obtained:
[1] = test system: Monocyte-derived macrophages (CD23+); test: Quantification of inflammatory response: nitrites (Greiss) from CD23-activated human macrophages, % inhibition relative to controls; assay type: cell-based; conditions: human macrophages activated through CD23
Description: Monocytes are isolated from normal human peripheral blood. Samples are collected from normal volunteers (20-50 years) by blood bank. They are all tested for the absence of HIV or HBV contaminations prior to use. Human normal mononuclear cells are obtained by Ficoll (Histopaque, Sigma) gradient separation of peripheral blood leukocytes. Monocytes are separated from lymphocytes by adherence to plastic dishes coated with fetal calf serum (FCS) as described (Vouldoukis I., et al., Proc. Natl. Acad. Sci. USA., 92: 7804-7808 1995). Following this procedure, >90% of cells express CD14 antigen and display cytochemical characteristics of monocytes. The cells are then incubated in DMEM supplemented with L-non-essential amino acids, sodium pyruvate, glutamine, penicillin, streptomycin, and 10% FCS (all from Gibco Laboratories, Grand Island, N.Y.). Above culture medium, chemicals, and FCS are tested for the absence of direct activation effect on human monocytes (CD23 expression and TNF-α production as activation markers). Following 24-48 hr adherence to culture flasks, these cells differentiate into macrophage-like cells displaying non-specific esterase activity that is inhibited by sodium fluoride.
Normal human donor-derived adherent cells have low if any surface CD23 expression and are designated in the present work as macrophages. CD23 expression is obtained following cell incubation with recombinant human interleukin 4 ([…]). […] Tissue-derived macrophages are mostly CD23^+.
Monocyte-derived macrophages (CD23^+) are activated through the cross-linking of their CD23 surface molecules by appropriate MoAb (20 μg/ml, clone 135, IgG1κ isotype) or by human IgE/anti-IgE complexes (IgE, Stallergene, Paris, France; goat anti-human-IgE, Nordic Immunology, Tilburg, The Netherlands). This activation pathway promotes the activation of iNOS mRNA transcription and the generation, by macrophages, of various inflammatory mediators such as nitric oxide (NO), TNF-α, reactive oxygen radicals, IL-1, and IL-6 (for, a review see: Dugas B, et al., Immunol Today, 16:574-580(1995)).
Following 1-3 day incubation at 37° C., 5% CO2 in humid atmosphere, macrophages are analyzed for their inflammatory response as following:
48-96 hr incubation: Collection of supernatants for the detection of cytokines and nitrites. Nitrites are quantified by Greiss method (Davies et al., Methods in Molecular Biology, 225:305-320, 2003) while IL-1, IL-6 and TNF-α: were quantified using commercial ELISA kits. The following antibodies and reagents were utilized:
Following quantitation of nitrites, a percentage inhibition relative to controls is calculated.

[2] = test system: macrophages derived from synovial fluid of patients with Rheumatoid Arthritis; test: NO generation by macrophages derived from synovial fluid of patients with Rheumatoid Arthritis; assay type: cell-based, human; conditions: RA synovial fluid macrophages
Description: CD23^+ cells are incubated in the presence or the absence of an inhibitory peptide […]) for 4 hours. CD23-MoAb or IgE/anti-IgE immune complexes are added. Following 3-5 day incubation, cell supernatants are harvested and the level of nitrites quantified by Greiss reaction (Davies et al., Methods in Molecular Biology, 225:305-320, 2003). The effect of CD23-Peptide or a negative control on inflammatory functions of macrophages derived from synovial fluid of patients with Rheumatoid Arthritis is also investigated.

arthritic rats = test: Treatment of arthritic rats (Mycobacterium butyricum-induced arthritis); assay type: in vivo, Lewis rats
Description: On day 0, 6-week old female Lewis rats weighing 145-155 g are injected subcutaneously with an arthritis-inducing emulsion. The rats are injected with 300 μl of the emulsion which contains: • 2 mg/rat heat-inactivated Mycobacterium butyricum diluted into; • 240 μl of Vaseline; • 30 μl of Tween-20; and • 30 μl of PBS.
The immunization step is repeated on day 7. The rats present arthritis signs by days 15 have to 21. Arthritic signs are assigned a clinical score (1-4). By day 40, the clinical scores increase from 1 to 3 or 4. Slower weight progression is also observed in immunized rats (FIG. 1a).
However, subcutaneous injection of 5 mg of p30A after the appearance of clinical signs results in complete remission of arthritic symptoms for 50% of the rats (FIG. 1b) as well as decreased clinical scores in 25% of the remaining rats.

CD23+ cells [3] = test: Inhibition of TNF-α generation from activated macrophages (ELISA); assay type: cell-based, human
Description: (§1) For inflammatory functions, cells are pre-incubated with CD23-counterstructures during 4 hours prior to their incubation with CD23-MoAb or IgE/anti-IgE complexes. Cell supernatants are collected 2-4 days later and tested for their contents in various mediators.
In addition to NO, the effect of peptides on the production of TNF-α, a well-documented effector factor during inflammatory diseases, is also tested.
CD23^+ cells are incubated in the presence or the absence of an inhibitory peptide (p30A) for 4 hours. CD23-MoAb or IgE/anti-IgE immune complexes are added. Following 3-5 day incubation, cell supernatants are harvested and the level of TNF-α, quantified by specific ELISA.

[4] = test system: rat peritoneal macrophages and rat peripheral macrophages; test: NO production from rat peritoneal and peripheral macrophages induced by IgE/DNP-BSA; assay type: cell-based; conditions: peptide 4 hours, 3-5 day incubation
Description: NO production from rat peritoneal macrophages and rat peripheral macrophages is also determined. Peritoneal macrophages are highly CD23^+ and produce much higher quantities of pro-inflammatory mediators compared to peripheral blood-derived cells. CD23^+ cells are incubated in the presence or the absence of an inhibitory peptide (p30A) for 4 hours. IgE/DNP-BSA is added to induce CD23 cross-linking. L-NIL is a specific inhibitor of NOS-II. Pep− is a negative control peptide. Following 3-5 day incubation, cell supernatants are harvested and the level of nitrites quantified by Greiss reaction (Davies et al., Methods in Molecular Biology, 225:305-320, 2003).

[5] = test system: Adjuvant arthritis (AA) rats; test: In vivo prevention and treatment of adjuvant arthritis in rats with p30A; set-up: species or system Lewis rats
Description: Each group of animals comprises eight rats. Female Lewis rats (Janvier, Le Genest St Isle, France) are housed under standard laboratory conditions and the animals are allowed free access to food and water. The temperature is kept at 22±2° C. and a 12-hour light/dark schedule is maintained. All animal procedures are performed in strict accordance with the guidelines issued by the European Economic Community “86/609”. Adjuvant arthritis (AA) is induced in six weeks-old animals by subcutaneous injection at the base of the tail of 300 μl (1.8 mg) of inactivated Mycobacterium butyricum (Difco Laboratories, Detroit, Mich.) diluted in emulsion of 8 ml Vaseline, 1 ml polysorbate 80, and 1 ml PBS (Phosphate Buffer Saline, BioWhittaker, Walkersville, Md.). Rats are boosted one week later with the same dose of antigen and observed for up to 50 days following immunization for clinical symptoms of arthritis. Evaluation of AA severity is performed by two independent observers with no knowledge of the treatment protocol. The severity of AA in each paw is quantified daily by a clinical score measurement from 0 to 2 as following: no signs of inflammation (0); swelling alone (>2 fold paw diameter) (0.5) or swelling/immobility (1.0) of one paw; swelling (1,5) or swelling/immobility (2,0) of two paws. Weight evolution of the animals is measured daily. Rats are injected with peptides or peptidomimetics (dissolved in 0.1% DMSO) I.C. every two days (day 0, 2, 4, 6, and 8) during the initiation of inflammation (preventive) or following the appearance of the inflammatory signs. As negative control, rats are injected with saline.
Clinical scores are determined as described above, and the cumulative clinical score is plotted against days post-immunization (FIGS. 2, 3, and 4).
In each of FIGS. 2, 3, and 4, arrows below the x-axis indicate the days on which IC injections were administered.

[6] = test system: macrophages derived from peripheral blood or the synovial fluid of patients with Rheumatoid Arthritis; test: TNF-α generation by macrophages from peripheral blood or synovial fluid of patients with Rheumatoid Arthritis; assay type: cell-based, human; conditions: for level of TNF-α: p30A + CD23-Ab
Description: CD23^+ cells are incubated in the presence or the absence of an inhibitory peptide (p30A) for 4 hours. CD23-MoAb or IgE/anti-IgE immune complexes are added. Following 3-5 day incubation, cell supernatants are harvested and the level of TNF-α, quantified by specific ELISA. The effect of CD23-Peptide or a negative control on inflammatory functions of macrophages derived from peripheral blood or the synovial fluid of patients with Rheumatoid Arthritis is also investigated.

CD23+ cells [7] = test: Inhibition of NO generation from activated macrophages (nitrites by Greiss reaction); assay type: cell-based, human; conditions: peptide 4 hours, then IgE/anti-IgE; 3-5 day incubation
Description: as §1
Inflammatory responses of human macrophages almost correlated with in vivo generation of nitric oxide by these cells. We use this inflammatory mediator as a marker of cell activation.
CD23^+ cells are incubated in the presence or the absence of an inhibitory peptide (p30A) for 4 hours. CD23-MoAb or IgE/anti-IgE immune complexes are added. Following 3-5 day incubation, cell supernatants are harvested and the level of nitrites quantified by Greiss reaction (Davies et al., Methods in Molecular Biology, 225:305-320, 2003).

[8] = subcutaneous injection of 5 mg after the appearance of clinical signs
[9] = Peripheral Macrophages of RA patients

For Ac n w CO2H [Compound 492], the “% Inhibition (nitrites relative to controls; inhibition of iNOS production)” value [1] was 77%.

In the case of H E N W Sar S [Compound 398], the “% Inhibition (nitrites relative to controls; inhibition of iNOS production)” value [1] is reported as 74%.

In the case of “G[allyl-] N W G[allyl-] S [Compound 490]”, the “% Inhibition (nitrites relative to controls; inhibition of iNOS production)” value [1] is reported as 81%.

With Ac N W BetaA CO2H [Compound 410] the “% Inhibition (nitrites relative to controls; inhibition of iNOS production)” value [1] was 61%.

With Ac N W CO2H [Compound 411] the “% Inhibition (nitrites relative to controls; inhibition of iNOS production)” value [1] was 84%.

For “NH2 G[allyl-] N W G[allyl-] [Compound 489]”, the “% Inhibition (nitrites relative to controls; inhibition of iNOS production)” value [1] was 62%.

Ac w n CO2H [Compound 491] was tested, and the “% Inhibition (nitrites relative to controls; inhibition of iNOS production)” value [1] was 94%.

For H E N W S [Compound 437], the “% Inhibition (nitrites relative to controls; inhibition of iNOS production)” value [1] was 56%.

With FHENWPS [p30A] the “level of nitrites [NO2-]” value ([2]; peptide + CD23-Ab) was 7.9 µM and 9.5 µM, the “level of nitrites [NO2-]” value ([2]; peptide alone (no CD23-Ab)) was 8.5 µM and 10.3 µM and the “remission of the arthritic condition” value (arthritic rats; intraperitoneal injection or intravenous treatment) was “do not induce remission”. For the same substance, the “remission of arthritis (FIG. 1b)” value (arthritic rats; subcutaneous injection of 5 mg) was “results in remission”, the “complete remission of arthritic symptoms” value (arthritic rats; [8]) was 50 % of the rats and the decreased clinical scores (arthritic rats; [8]) was 25 % of the remaining rats. The arthritis appearance (arthritic rats; unique injection (intraperitoneal or subcutaneous) at day 0) was “no affect on arthritis appearance”, the “% Inhibition of TNF-α” value (CD23+ cells [3]; p30A + CD23-Ab versus CD23-Ab) was 47% and 54% and the “level of TNF-α” value (CD23+ cells [3]; peptide 4 hours, then CD23-Ab, 3-5 day incubation) was 77 pg TNF-α/ml and 89 pg TNF-α/ml. For the same substance, the “IgE/DNP-BSA-induced NO production by macrophages” value [4] was “inhibits IgE/DNP-BSA-induced NO production”, the “cumulative clinical score, preventive treatment (FIG. 2)” value ([5]; injections every two days from immunization, two dosage regimes, versus control rats) was “clearly superior clinical scores compared to control rats” and the “weight gain (FIG. 4)” value ([5]; rats with arthritic symptoms, versus untreated arthritic rats) was “produced weight gain”. The “cumulative clinical score, therapeutic treatment (FIG. 3)” value ([5]; treated from day of first symptoms, 3 dosage regimes, versus control rats) was “clear therapeutic effect”, the “% Inhibition of TNF-α” value [6, 9] was 73% and the “level of TNF-α” value [6, 9] was 40 pg TNF-α/ml. The “% Inhibition of TNF-α” value ([6]; SF Macrophages of RA patients) was 41%, the “level of TNF-α” value ([6]; SF Macrophages of RA patients) was 140 pg TNF-α/ml and the “level of nitrites [NO2-]” value (CD23+ cells [7]) was 2.6 µM and 1.4 µM.

F H E N W beta A S [Compound 328] was tested, and the “% Inhibition (nitrites relative to controls; inhibition of iNOS production)” value [1] was 26%.
